Assay results taken from PubChem BioAssay (NCI).
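GI50 = concentration required for 50% inhibition of growth. At the TGI there is no net growth.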

Assays:
Assay in all cases: NCI anticancer screen, dose series, 384-well format
SN12C renal = tested on: SN12C renal
SF-268 CNS = tested on: SF-268 CNS
HOP-62 NSCLC = tested on: HOP-62 NSCLC
SF-295 CNS = tested on: SF-295 CNS
EKVX NSCLC = tested on: EKVX NSCLC
MALME-3M melanoma = tested on: MALME-3M melanoma
RPMI-8226 leukemia = tested on: RPMI-8226 leukemia
UACC-257 melanoma = tested on: UACC-257 melanoma
OVCAR-8 ovarian = tested on: OVCAR-8 ovarian
SR leukemia = tested on: SR leukemia
LOX IMVI melanoma = tested on: LOX IMVI melanoma
BT-549 breast = tested on: BT-549 breast
MDA-MB-468 breast = tested on: MDA-MB-468 breast
SNB-19 CNS = tested on: SNB-19 CNS
NCI-H23 lung = tested on: NCI-H23 lung
CCRF-CEM leukemia = tested on: CCRF-CEM leukemia
HCC-2998 colon = tested on: HCC-2998 colon
DU-145 prostate = tested on: DU-145 prostate
SK-MEL-5 melanoma = tested on: SK-MEL-5 melanoma
HS 578T breast = tested on: HS 578T breast
SNB-75 CNS = tested on: SNB-75 CNS
M14 melanoma = tested on: M14 melanoma
OVCAR-4 ovarian = tested on: OVCAR-4 ovarian
MDA-MB-435 melanoma = tested on: MDA-MB-435 melanoma
RXF 393 renal = tested on: RXF 393 renal
K-562 leukemia = tested on: K-562 leukemia
SF-539 CNS = tested on: SF-539 CNS
NCI-H460 NSCLC = tested on: NCI-H460 NSCLC
HT29 colon = tested on: HT29 colon
NCI-H522 lung = tested on: NCI-H522 lung
786-0 renal = tested on: 786-0 renal
OVCAR-5 ovarian = tested on: OVCAR-5 ovarian
A549 NSCLC = tested on: A549 NSCLC
CAKI-1 renal = tested on: CAKI-1 renal
UACC-62 melanoma = tested on: UACC-62 melanoma
SW-620 colon = tested on: SW-620 colon
MDA-MB-231 breast = tested on: MDA-MB-231 breast
KM12 colon = tested on: KM12 colon
HL-60(TB) leukemia = tested on: HL-60(TB) leukemia
NCI-H226 lung = tested on: NCI-H226 lung
NCI/ADR-RES ovarian = tested on: NCI/ADR-RES ovarian
PC-3 prostate = tested on: PC-3 prostate
MOLT-4 leukemia = tested on: MOLT-4 leukemia
NCI-H322M lung = tested on: NCI-H322M lung
ACHN renal = tested on: ACHN renal
A498 renal = tested on: A498 renal
HCT-15 colon = tested on: HCT-15 colon
SK-OV-3 ovarian = tested on: SK-OV-3 ovarian
UO-31 renal = tested on: UO-31 renal
OVCAR-3 ovarian = tested on: OVCAR-3 ovarian
SK-MEL-28 melanoma = tested on: SK-MEL-28 melanoma
T-47D breast = tested on: T-47D breast
IGROV1 ovarian = tested on: IGROV1 ovarian
MCF7 breast = tested on: MCF7 breast
COLO 205 colon = tested on: COLO 205 colon

Compound C=CC(=O)N1C[C@H](COc2nc(Nc3cnn(C)c3)nc3[nH]cc(Cl)c23)[C@@H](OC)C1 has a GI50 (SN12C renal) of 0.633 µM, a TGI (SN12C renal) of 12.8 µM and a GI50 (SF-268 CNS) of 1.93 µM. The TGI (SF-268 CNS) was 12.3 µM, the GI50 (HOP-62 NSCLC) was 4.05 µM and the TGI (HOP-62 NSCLC) was 26.5 µM. The GI50 (SF-295 CNS) was 13.3 µM, the TGI (SF-295 CNS) was 31.5 µM and the GI50 (EKVX NSCLC) was 1.31 µM. It also gave a TGI (EKVX NSCLC) of 7.08 µM, a GI50 (MALME-3M melanoma) of 8.86 µM and a TGI (MALME-3M melanoma) of 21.2 µM. It also gave a GI50 (RPMI-8226 leukemia) of 1 µM, a TGI (RPMI-8226 leukemia) of 3.47 µM and a GI50 (UACC-257 melanoma) of 5.21 µM. It also gave a TGI (UACC-257 melanoma) of 17.1 µM, a GI50 (OVCAR-8 ovarian) of 4.15 µM and a TGI (OVCAR-8 ovarian) of 18.7 µM. It also gave a GI50 (SR leukemia) of 0.19 µM, a TGI (SR leukemia) of 0.351 µM and a GI50 (LOX IMVI melanoma) of 1.52 µM. The TGI (LOX IMVI melanoma) was 11.6 µM, the GI50 (BT-549 breast) was 0.47 µM and the TGI (BT-549 breast) was 10.3 µM. The GI50 (MDA-MB-468 breast) was 0.267 µM, the TGI (MDA-MB-468 breast) was 0.628 µM and the GI50 (SNB-19 CNS) was 5.2 µM. For the same compound, the TGI (SNB-19 CNS) was 23.1 µM, the GI50 (NCI-H23 lung) was 1.59 µM and the TGI (NCI-H23 lung) was 9.36 µM. The GI50 (CCRF-CEM leukemia) was 0.242 µM, the TGI (CCRF-CEM leukemia) was 0.544 µM and the GI50 (HCC-2998 colon) was 3.86 µM. The TGI (HCC-2998 colon) was 15 µM, the GI50 (DU-145 prostate) was 2.26 µM and the TGI (DU-145 prostate) was > 100 µM. It also gave a GI50 (SK-MEL-5 melanoma) of 3.01 µM, a TGI (SK-MEL-5 melanoma) of 12.2 µM and a GI50 (HS 578T breast) of 1.37 µM. The TGI (HS 578T breast) was 4.19 µM, the GI50 (SNB-75 CNS) was 0.467 µM and the TGI (SNB-75 CNS) was 1.88 µM. The GI50 (M14 melanoma) was 2.17 µM, the TGI (M14 melanoma) was 18.2 µM and the GI50 (OVCAR-4 ovarian) was 1.75 µM. It also gave a TGI (OVCAR-4 ovarian) of 23.6 µM, a GI50 (MDA-MB-435 melanoma) of 4.27 µM and a TGI (MDA-MB-435 melanoma) of 20.9 µM. For the same compound, the GI50 (RXF 393 renal) was 5.76 µM, the TGI (RXF 393 renal) was 22.3 µM and the GI50 (K-562 leukemia) was 2.14 µM. For the same compound, the TGI (K-562 leukemia) was 12.3 µM, the GI50 (SF-539 CNS) was 1.21 µM and the TGI (SF-539 CNS) was 3.2 µM. The GI50 (NCI-H460 NSCLC) was 1.81 µM, the TGI (NCI-H460 NSCLC) was 11.6 µM and the GI50 (HT29 colon) was 4.01 µM. The TGI (HT29 colon) was > 100 µM, the GI50 (NCI-H522 lung) was 0.281 µM and the TGI (NCI-H522 lung) was 0.858 µM. The GI50 ([…]-0 renal) was 4.84 µM, the TGI (786-0 renal) was 41.8 µM and the GI50 (OVCAR-5 ovarian) was 5.34 µM. For the same compound, the TGI (OVCAR-5 ovarian) was > 100 µM, the GI50 (A549 NSCLC) was 2.25 µM and the TGI (A549 NSCLC) was 13.1 µM. The GI50 (CAKI-1 renal) was 1.17 µM, the TGI (CAKI-1 renal) was 11.9 µM and the GI50 (UACC-62 melanoma) was 0.912 µM. It also gave a TGI (UACC-62 melanoma) of 13.5 µM, a GI50 (SW-620 colon) of 0.673 µM and a TGI (SW-620 colon) of 2.11 µM. For the same compound, the GI50 (MDA-MB-231 breast) was 2.78 µM, the TGI (MDA-MB-231 breast) was > 100 µM and the GI50 (KM12 colon) was 0.287 µM. For the same compound, the TGI (KM12 colon) was 14.3 µM, the GI50 (HL-60(TB) leukemia) was 0.408 µM and the TGI (HL-60(TB) leukemia) was 1.55 µM. The GI50 (NCI-H226 lung) was 0.394 µM, the TGI (NCI-H226 lung) was 9.42 µM and the GI50 (NCI/ADR-RES ovarian) was 29.3 µM. For the same compound, the TGI (NCI/ADR-RES ovarian) was > 100 µM, the GI50 (PC-3 prostate) was 4.53 µM and the TGI (PC-3 prostate) was 20.5 µM. The GI50 (MOLT-4 leukemia) was 0.308 µM, the TGI (MOLT-4 leukemia) was 0.833 µM and the GI50 (NCI-H322M lung) was 1.39 µM. It also gave a TGI (NCI-H322M lung) of 13.8 µM, a GI50 (ACHN renal) of 1.94 µM and a TGI (ACHN renal) of 15.4 µM. The GI50 (A498 renal) was 0.584 µM, the TGI (A498 renal) was 21.4 µM and the GI50 (HCT-15 colon) was 2.93 µM. The TGI (HCT-15 colon) was 12.3 µM, the GI50 (SK-OV-3 ovarian) was 0.556 µM and the TGI (SK-OV-3 ovarian) was 5.05 µM. The GI50 (UO-31 renal) was 7.62 µM, the TGI (UO-31 renal) was > 100 µM and the GI50 (OVCAR-3 ovarian) was 2.72 µM. It also gave a TGI (OVCAR-3 ovarian) of 23.6 µM, a GI50 (SK-MEL-28 melanoma) of 3.82 µM and a TGI (SK-MEL-28 melanoma) of 16.8 µM. It also gave a GI50 (T-47D breast) of 4.63 µM, a TGI (T-47D breast) of 18 µM and a GI50 (IGROV1 ovarian) of 0.852 µM. For the same compound, the TGI (IGROV1 ovarian) was 3.31 µM, the GI50 (MCF7 breast) was 2.02 µM and the TGI (MCF7 breast) was 15.6 µM. For the same compound, the GI50 (COLO 205 colon) was 0.54 µM and the TGI (COLO 205 colon) was 11.1 µM.
